Non-standard residues stand in square brackets, D forms with d. Residues, ends and D or L forms follow the SMILES beside them. 3Amb = NCc1cccc(C(=O)O)c1
How the values were obtained:
[1] = target: T1, αv /β3 receptor (Homo sapiens, UniProt P05106+P06756); experiment: αv/β3-Biotinylated Vitronectin Binding Assay; conditions: for IC50: inhibition of vitronectin binding to purified αv/β3; for Relative Binding Affinity for αv /β3 Relative to GPIIb/IIIa: ratio of IC50 values (GPIIb/IIIa over αv/β3)
T1 construct: The αv /β3 receptor was isolated from human placental extracts prepared using octylglucoside; from tissue
Source text: (§1) Compounds may be tested for their ability to block binding of vitronectin to the αv /β3 receptor and to block the binding of fibrinogen to GPIIb/IIIa receptor in the αv /β3 -Biotinylated Vitronectin Binding Assay and GPIIb/IIIa Receptor-Biotinylated Fibrinogen Binding Assay described below.
αv /β3 -Biotinylated Vitronectin Binding Assay
The αv /β3 receptor was isolated from human placental extracts prepared using octylglucoside. The extract was passed over an anti-αv /β3 monoclonal antibody (LM609) affinity column (prepared using LM609 and Affigel 10). The column was subsequently washed extensively at pH 7 and pH 4.5 followed by elution at pH 3. The resulting sample was concentrated by wheat germ agglutinin chromatography to provide a αv /β3 -containing sample which gave two bands on SDS-PAGE which were confirmed as αv /β3 by western blotting.
The affinity purified αv /β3 protein as described above was diluted at different levels and plated to 96 well plates (about 15 ng of αv /β3 protein per well). ELISA detection of αv /β3 -bound biotinylated vitronectin was performed as described below using fixed concentration of biotinylated vitronectin (approximately 80 nM/well). This αv /β3 receptor preparation contains the αv /β3 with no detectable levels of αv /β5 according to the gel and according to effects of blocking antibodies for the αv /β3 or αv /β5 in the ELISA.
A submaximal concentration of biotinylated vitronectin was selected based on concentration response curves with fixed αv /β3 receptor concentration and variable concentrations of biotinylated vitronectin.
The purified αv /β3 receptor is diluted with coating buffer (20 mM Tris HCl, 150 mM NaCl, 2.0 mM CaCl2, 1.0 mM MgCl2.6H2 O, 1.0 mM MnCl2.4H2 O) and coated (100 μL/well) on Costar (3590) high capacity 96-well plates overnight at 4° C. The coating solution is discarded and the plates washed once with blocking/binding buffer (B/B buffer: 50 mM Tris HCl, 100 mM NaCl, 2.0 mM CaCl2, 1.0 mM MgCl2.6H2 O, 1.0 mM MnCl2.4H2 O). The plate-immobilized αv /β3 receptor is then blocked (200 μl/well) with 3.5% BSA in B/B buffer for 2 hours at room temperature. After washing once with 1.0% BSA in B/B buffer, biotinylated vitronectin (100 μL) and either test compound (inhibitor) (11 μL) or B/B buffer w/1.0% BSA (11 μL) is added to each well. The plates are incubated 2 hours at room temperature. The plates are washed twice with B/B buffer and incubated 1 hour at room temperature with anti-biotin alkaline phosphatase (100 μL/well) in B/B buffer containing 1.0% BSA. The plates are washed twice with B/B buffer and alkaline phosphatase substrate (100 μL) is added. Color is developed at room temperature. Color development is stopped by addition of 2N NaOH (25 μL/well) and absorbance is read at 405 nm.
The inhibitory binding constant (Ki) of test agents 30 may be calculated under this assay system using Michaelis-Menten analysis. The IC50 is the concentration of test substance needed to block 50% of the vitronectin binding to the αv /β3 receptor. The IC50 for the inhibition of binding of vitronectin to the αv /β3 receptor was determined based on time averaged values for the inhibition of vitronectin binding. Thus, the inhibition of vitronectin binding for each concentration of test compound was measured every 30 seconds over a 2 hour period and the average value of inhibition of vitronectin binding over such 2 hour period was used for the determination of the IC50.

[2] = system: Platelet Aggregation; experiment: Platelet Aggregation Assay (in vitro, ADP-induced, platelet-rich plasma); format: cell-based, mongrel dogs or human
Procedure: Platelet Aggregation Assay
Venous blood was obtained from anesthetized mongrel dogs or from healthy human donors who were drug-free and aspirin-free for at least two weeks prior to blood collection. Blood was collected into citrated Vacutainer tubes. The blood was centrifuged for 15 minutes at 150× g (850 RPM in a Sorvall RT6000 Tabletop Centrifuge with H-1000 B rotor) at room temperature, and platelet-rich plasma (PRP) was removed. The remaining blood was centrifuged for 15 minutes at 1500× g ([…]) at room temperature, and platelet-poor plasma (PPP) was removed. Samples were assayed on an aggregometer (PAP-4 Platelet Aggregation Profiler), using PPP as the blank (100% transmittance). 200 μL of PRP (5×10^8 platelets/mL) were added to each micro test tube, and transmittance was set to 0%. 20 μl of ADP (10 μM) was added to each tube, and the aggregation profiles were plotted (% transmittance versus time). Test agent (20 μL) was added at different concentrations prior to the addition of the platelet agonist. Results are expressed as % inhibition of agonist-induced platelet aggregation.

[3] = target: T2, GPIIb/IIIa receptor (Homo sapiens, UniProt P05106+P08514); experiment: GPIIb/IIIa Receptor-Biotinylated Fibrinogen Binding Assay; conditions: inhibition of fibrinogen binding to purified GPIIb/IIIa
T2 construct: The GPIIb/IIIa receptor was purified from human platelets; from tissue; host or cells: human platelets (purified according to D'Souza et al., J. Biol. Chem. 1990, 265:3440-3446)
Source text: as §1
GPIIb/IIIa Receptor-Biotinylated Fibrinogen Binding Assay
The GPIIb/IIIa receptor was purified from human platelets according to D'Souza et al. (J. Biol. Chem., 1990, 265:3440-3446). The purified GPIIb/IIIa protein was coated on 96 well plates and the competition between test compound and biotinylated fibrinogen for binding to the plate-immobilized GPIIb/IIIa receptor was determined by ELISA as described below. Bound fibrinogen was detected using an avidin-alkaline phosphatase conjugate and paranitrophenol detection at […]. For IC50 determination, test agent was added at various concentrations to plates coated with purified GPIIb/IIIa protein which was followed by the addition of biotinylated fibrinogen. The inhibitory binding constant (Ki) of test agents were calculated under this assay system using standard Michaelis-Menten analysis. The IC50 is the concentration of test substance needed to block 50% of the fibrinogen binding to the GPIIb/IIIa receptor.
The following reagents may be used in the GPIIb/IIIa-fibrinogen binding ELISA:
purified GPIIb/IIIa (148.8 μg/mL);
biotinylated fibrinogen (~1 mg/mL or 3000 nM);
anti-biotin alkaline phosphatase conjugate (Sigma no. A7418);
flat-bottom, high binding, 96-well plates (Costar Cat. no. 3590);
phosphatase substrate (Sigma 104) (40 mg capsules);
bovine serum albumin (BSA) (Sigma no. A3294);
Alkaline Phosphatase buffer--0.1 M glycine-HCl, 1 mM MgCl2.6H2 O, 1 mM ZnCl2, pH 10.4;
Binding buffer--20 mM Tris-HCl, 150 mM NaCl, 1 mM CaCl2.2H2 O, 0.02% NaN3, pH 7.0;
Buffer A--50 mM Tris-HCl, 100 mM NaCl, 2 mM CaCl2.2H2 O, 0.02% NaN3, pH 7.4;
Buffer A+3.5% BSA (Blocking buffer);
Buffer A+0.1% BSA (Dilution buffer);
The following method steps are used in the GPIIb/IIIa-fibrinogen binding ELISA:
Coat plates with GPIIb/IIIa in Binding buffer (125 ng/100 μL/well) overnight at 4° C. (Leave first column uncoated for non-specific binding). Cover and freeze plates at -70° C. until used. Thaw plate 1 hour at room temperature or overnight at 4° C. Discard coating solution and wash once with 200 μL Binding buffer per well. Block plate 2 hours at room temperature on shaker with 200 μl Buffer A+3.5% BSA (Blocking buffer) per well. Discard Blocking buffer and wash once with 200 μL Buffer A+0.1% BSA (Dilution buffer) per well. Pipet 11 μL of test compound (10× the concentration to be tested in Dilution buffer) into duplicate wells. […] Read plate at 405 nm. Blank against non-specific binding (NSB) well. % Inhibition is calculated as 100-(Test Compound Abs/Total Abs)×100.

[4] = system: canine thrombosis model (carotid artery); experiment: Carotid artery reocclusion in canine thrombosis model with tPA; format: in vivo; conditions: dog carotid
Procedure: Compounds useful in the method of the present invention are useful for the prevention of reocclusion as an adjunct to fibrinolytic therapy, as shown in the animal model tests described below. The effect of compound A in combination with tPA on the incidence of carotid artery reocclusion in dogs was assessed using a protocol as described by Mousa et al., Circulation 1994, 89:3-12.

[5] = tPA 0.5 mg locally, 1.5 mg IV bolus, compound A 0.1 mg/kg IV bolus + 0.4 mg/kg IV infusion 3 hr, mean ± SD

T1 sequence (P06756 31-889 limits assumed): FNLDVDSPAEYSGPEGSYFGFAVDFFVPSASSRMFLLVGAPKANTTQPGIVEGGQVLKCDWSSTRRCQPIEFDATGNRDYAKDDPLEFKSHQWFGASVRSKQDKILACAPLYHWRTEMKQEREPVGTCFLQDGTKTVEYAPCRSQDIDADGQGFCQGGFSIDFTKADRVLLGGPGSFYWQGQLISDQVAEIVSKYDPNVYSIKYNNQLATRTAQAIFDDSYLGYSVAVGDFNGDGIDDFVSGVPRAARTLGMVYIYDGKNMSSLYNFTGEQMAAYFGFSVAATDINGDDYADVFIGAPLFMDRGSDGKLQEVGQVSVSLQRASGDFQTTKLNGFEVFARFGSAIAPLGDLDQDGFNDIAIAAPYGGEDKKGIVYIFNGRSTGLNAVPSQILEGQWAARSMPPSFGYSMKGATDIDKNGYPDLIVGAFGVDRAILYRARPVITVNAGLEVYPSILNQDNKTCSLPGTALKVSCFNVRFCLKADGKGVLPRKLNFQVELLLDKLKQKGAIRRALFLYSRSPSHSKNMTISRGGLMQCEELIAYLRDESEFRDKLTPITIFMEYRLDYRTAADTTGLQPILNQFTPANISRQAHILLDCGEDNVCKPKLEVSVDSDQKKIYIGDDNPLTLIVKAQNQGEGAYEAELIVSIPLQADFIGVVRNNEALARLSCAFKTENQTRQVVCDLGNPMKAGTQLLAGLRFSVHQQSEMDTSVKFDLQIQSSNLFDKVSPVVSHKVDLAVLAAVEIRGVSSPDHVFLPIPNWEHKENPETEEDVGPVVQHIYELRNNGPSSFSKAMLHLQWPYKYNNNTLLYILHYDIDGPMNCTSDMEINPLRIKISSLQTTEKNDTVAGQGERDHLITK
T1 sequence (P06756 891-1048 partner limits assumed): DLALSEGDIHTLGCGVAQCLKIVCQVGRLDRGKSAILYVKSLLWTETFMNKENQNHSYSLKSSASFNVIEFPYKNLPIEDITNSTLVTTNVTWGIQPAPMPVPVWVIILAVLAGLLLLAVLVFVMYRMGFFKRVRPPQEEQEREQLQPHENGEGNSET
T1 sequence (P05106 27-788): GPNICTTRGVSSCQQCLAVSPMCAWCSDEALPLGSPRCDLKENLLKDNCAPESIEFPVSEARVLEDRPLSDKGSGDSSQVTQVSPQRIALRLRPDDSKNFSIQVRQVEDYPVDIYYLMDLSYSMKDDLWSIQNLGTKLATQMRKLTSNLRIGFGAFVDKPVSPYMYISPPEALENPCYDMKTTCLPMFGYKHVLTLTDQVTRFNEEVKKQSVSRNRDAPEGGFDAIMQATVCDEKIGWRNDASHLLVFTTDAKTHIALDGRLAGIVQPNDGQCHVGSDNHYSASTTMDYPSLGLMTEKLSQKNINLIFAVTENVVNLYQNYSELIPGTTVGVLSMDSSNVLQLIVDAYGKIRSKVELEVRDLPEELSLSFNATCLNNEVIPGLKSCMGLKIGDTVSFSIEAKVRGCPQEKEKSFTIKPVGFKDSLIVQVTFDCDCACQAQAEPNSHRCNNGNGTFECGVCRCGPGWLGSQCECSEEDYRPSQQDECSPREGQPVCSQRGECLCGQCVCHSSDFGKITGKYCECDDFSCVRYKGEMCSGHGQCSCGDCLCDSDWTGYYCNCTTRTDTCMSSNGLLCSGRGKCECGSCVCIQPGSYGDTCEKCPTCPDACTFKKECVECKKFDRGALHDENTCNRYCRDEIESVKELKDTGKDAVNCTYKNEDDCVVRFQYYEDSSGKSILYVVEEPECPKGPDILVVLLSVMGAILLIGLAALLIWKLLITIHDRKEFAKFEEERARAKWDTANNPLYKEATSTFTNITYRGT
T2 sequence (P08514 32-887 limits assumed): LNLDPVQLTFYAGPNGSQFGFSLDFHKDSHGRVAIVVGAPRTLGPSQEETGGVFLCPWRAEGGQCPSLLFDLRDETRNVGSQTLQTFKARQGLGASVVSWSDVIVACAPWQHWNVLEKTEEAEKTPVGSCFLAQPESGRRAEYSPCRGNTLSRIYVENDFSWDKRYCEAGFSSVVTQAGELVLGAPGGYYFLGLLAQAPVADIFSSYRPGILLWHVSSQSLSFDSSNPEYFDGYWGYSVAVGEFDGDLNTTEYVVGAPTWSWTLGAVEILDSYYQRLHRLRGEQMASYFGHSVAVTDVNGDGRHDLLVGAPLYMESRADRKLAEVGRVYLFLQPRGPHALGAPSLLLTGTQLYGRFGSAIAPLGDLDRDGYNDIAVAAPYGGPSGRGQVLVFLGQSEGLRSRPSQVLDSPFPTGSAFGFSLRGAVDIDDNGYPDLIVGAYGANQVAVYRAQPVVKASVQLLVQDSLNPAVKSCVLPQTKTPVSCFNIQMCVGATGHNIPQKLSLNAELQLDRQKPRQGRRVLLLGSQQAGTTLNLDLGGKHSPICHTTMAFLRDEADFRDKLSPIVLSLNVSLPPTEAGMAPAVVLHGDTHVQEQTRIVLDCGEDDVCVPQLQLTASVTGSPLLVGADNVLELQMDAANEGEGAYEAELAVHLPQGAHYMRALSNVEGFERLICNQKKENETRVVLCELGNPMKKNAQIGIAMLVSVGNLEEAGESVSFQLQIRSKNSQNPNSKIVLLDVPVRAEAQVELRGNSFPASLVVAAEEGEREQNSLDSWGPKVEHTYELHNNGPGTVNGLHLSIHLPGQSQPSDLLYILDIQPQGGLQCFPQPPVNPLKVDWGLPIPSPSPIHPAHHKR
T2 sequence (P08514 891-1039 partner limits assumed): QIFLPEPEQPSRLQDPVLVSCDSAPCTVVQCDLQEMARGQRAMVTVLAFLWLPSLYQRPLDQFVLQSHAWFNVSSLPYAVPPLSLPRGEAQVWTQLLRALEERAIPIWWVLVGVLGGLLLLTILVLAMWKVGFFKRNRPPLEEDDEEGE
T2 sequence (P05106 27-788): as the sequence (P05106 27-788) above

Row | Molecule | IC50 [1] [nM] | Relative Binding Affinity for αv /β3 Relative to GPIIb/IIIa [1] | IC50 [2] [nM] | IC50 [3] [nM] | Blood Flow, Basal ([4]; basal, tPA with or without compound A, mean ± SD) [cm/s] | Blood Flow, End ([4]; end, tPA with or without compound A) [cm/s] | Blood Flow, Reperfusion ([4]; reperfusion, tPA with or without compound A, mean ± SD) [cm/s] | Thrombus Weight (wet, mg) [4, 5] [mg] | Time to Occlusion [4, 5] [min] | Time to Reocclusion [4, 5] [min] | Time to Reperfusion [4, 5] [min]
1 | N=C(N)NCCC[C@@H]1NC(=O)[C@H](CCCCN)NC(=O)c2cccc(c2)CNC(=O)[C@H](CC(=O)O)NC(=O)CNC1=O [Compound D, cyclo-(Lys-Arg-Gly-Asp-Mamb)] (cyclo(RGD[3Amb]K)) | 1.9 | 189 | 23000 | 359 |  |  |  |  |  |  | 
2 | CC(C)C[C@@H]1NC(=O)c2cccc(c2)CNC(=O)[C@H](CC(=O)O)NC(=O)CNC(=O)[C@H](CCCNC(=N)N)NC1=O [Compound E, cyclo-(Leu-Arg-Gly-Asp-Mamb)] (cyclo(RGD[3Amb]L)) | 1.4 | 307 | 41000 | 430 |  |  |  |  |  |  | 
3 | tPA: tissue plasminogen activator, thrombolytic agent |  |  |  |  | 30 ± 2.5 | 0 | 24.2 ± 8 | 36.2 ± 19.4 | 80 ± 25 | 23 ± 10 | 15 ± 10

Reference: patent publication US6056958A, “Method of treatment of arterial and venous thromboembolic disorders” (Dupont Pharmaceuticals, priority 1997, dated 2000)
